From article PMC6354162, “Development of a MD-LC-MS/MS Method to Analyze 3 Bioactive Compounds in Huoxuezhitong Rubber Patch and Application to a Pharmacokinetic Study in Rats” (Evidence-based Complementary and Alternative Medicine : eCAM, 2019)

How the values were obtained:
[1] = Local (subcutaneous) pharmacokinetic study by dermal microdialysis after dermal administration of Huoxuezhitong rubber patch; type: in vivo; conditions: Sprague-Dawley, rat, subcutaneous (dermal) microdialysate, topical, male SD rats, mean ± SD, n = 6; for Cmax: maximum subcutaneous concentration, transdermal Huoxuezhitong rubber patch (3.46 cm2), removed after 720 min, corrected by RR; for AUC(0-t): subcutaneous concentration-time curve, read-out: AUC0-720 (converted); for AUC(0-t) / Tmax / MRT last / MRT inf / half-life: transdermal Huoxuezhitong rubber patch; for Tmax: subcutaneous tissue; for MRT last / MRT inf / half-life: subcutaneous; for MRT last: read-out: MRT0-720 (converted); for MRT inf: read-out: MRT0-∞ (converted); for half-life: terminal elimination half-life
Procedure: Before surgery, a rat with the hair on the abdomen shaved off was anesthetized with Urethane (1.5g/ kg, intraperitoneal injection). Its shell temperature was maintained at about 32.5°C during the experiment with the help of an infrared lamp. The linear microdialysis probe was inserted through a 23-gage intravenous needle. Subsequently, the needle was taken out, leaving the dialysis membranes horizontal under the hairless skin.
Implantation and pretreatment of the probe are the same as that described in Section 2.3. Then a round rubber patch (3.46 cm^2) was pasted on the hairless abdomen of the rat, respectively. After 720 min, the paste was scripted away. The skin was wiped softly and carefully to remove the residual drug. Simultaneously, another three samples was collected. If the rats suddenly died, the collection had to be terminated. All samples were immediately stored at 4°C until injected into the LC/MS/MS system for analysis. The sample concentration was corrected by RR.
The pharmacokinetics analysis was conducted by a noncompartmental approach using the Kinetica 5.1. The pharmacokinetics parameters, such as the maximum subcutaneous concentration (Cmax), time of reaching Cmax (Tmax), the area subcutaneous concentration-time curve (AUC0-t), the mean residence time (MRT), and the terminal elimination half-life (t1/2), were calculated on each individual analyte.

[2] = cited from earlier work

Cmax [1]	AUC(0-t) [1]	Tmax [1]	MRT last [1]	MRT inf [1]	half-life [1]	SMILES	Water solubility [2]
12.6 ± 3.29 ng/mL	83.7 ng·h/mL	3.11 h	6.06 h	9.5 h	5.62 ± 3.8 h	COc1ccc(C(C)=O)c(O)c1 [paeonol]	349.8 µg/mL
1.8 ± 1.22 ng/mL	14.7 ng·h/mL	8.13 h	9.17 h	11.5 h	5.62 ± 0.741 h	O=C(/C=C/C=C/c1ccc2c(c1)OCO2)N1CCCCC1 [piperine]	insoluble

SMILES	Cmax [1]	AUC(0-t) [1]	Tmax [1]	MRT last [1]	MRT inf [1]	half-life [1]	Water solubility [2]
C=CCc1ccc(O)c(OC)c1 [eugenol]	18.9 ± 7.11 ng/mL	119 ng·h/mL	4 h	6.2 h	7.77 h	3.81 ± 2.7 h	insoluble
